Measured values reported in patent US7405038B1, “Stable cell lines resistant to apoptosis and nutrient stress and methods of making same” (Boyce Thompson Institute for Plant Research, Inc., priority 2000, dated 2008).
Numbered stars: 1 amine (or outer) side, 2 acyl side, 3 side chain; on linkers, the order of the positions; unused ones are H or OH. Bridge positions count the residues as written; N and C are the ends. Square brackets hold non-standard residues; d marks the D form. Peptide text beside a SMILES is read from it. I, II: the chains in the order shown. Actinocin(9to1) = Cc1c2oc3c(C)ccc(C(=O)[*:1])c3nc-2c(C(=O)[*:2])c(N)c1=O; NMeV = CN[C@H](C(=O)O)C(C)C; Sar = CNCC(=O)O

Tests used:
Format in all cases: cell-based, Spodoptera frugiperda
Sf9 cells [1] = test: Resistance to induction of apoptosis by actinomycin D: cell survival
Description: (§1) The cells were examined for resistance to induction of apoptosis by actinomycin D, as well as survival under conditions of nutrient deprivation. Sf9 cells or stably transfected lines Sf9^P35AcV5−1 and Sf9^P35AcV5−3 were incubated in medium containing 0.1 μg/ml actinomycin D for 1 hour, then placed in TNMFH medium.
(§2) Increasing doses of actinomycin D were tested to further examine the degree of resistance to this inducer of apoptosis. Sf9 or stably transfected cells expressing P35 were incubated in a range of concentrations of actinomycin D (0.01 to 0.5 μg/ml) for one hour, then placed in TNMFH and scored for cell survival after 1-4 days (Table 2).

Sf9P35AcV5-3 cells [2] = test: as above
Description: as §1, §2

Sf9P35AcV5-1 cells = test: DNA laddering on agarose gel after actinomycin D exposure; conditions: 0.1 μg/ml actinomycin D for one hour, 24 hours in fresh TNMFH
Description: (§3) To further examine resistance to apoptosis by P35 expressing cells, Sf9, Sf9^P35AcV5−1 and Sf9^P35AcV5−3 cells were plated at 2×10^6 cells/well in 6-well plates, then exposed to actinomycin D (0.1 μg/ml) for one hour, and incubated in fresh TNMFH medium at 27° C. for 24 hours. Cells were harvested and washed twice with PBS. Lysates were prepared by incubating cells in 200 μl lysis buffer (10 mM Tris pH 7.5, 25 mM EDTA, 0.2% Triton X-100) for one hour at room temperature. The lysate was extracted once with phenol, once with phenol:chloroform (1:1), twice with chloroform, and then precipitated in two volumes of ethanol. Cellular DNA was resuspended in 30 μl water containing RNAse A (50 μg/ml). 10 μl of DNA from each cell treatment was electrophoresed on a 1.2% agarose gel in TBE buffer (not shown).

Sf9 cells [3] = test: as above; conditions: 0.1 μg/ml actinomycin D for one hour, 24 hours in fresh TNMFH
Description: as §3

Sf9P35AcV5-3 cells [4] = test: as above; conditions: 0.1 μg/ml actinomycin D for one hour, 24 hours in fresh TNMFH
Description: as §3

[5] = 0.1 μg/ml actinomycin D for 1 hour, then TNMFH medium, after three days
[6] = 0.1 μg/ml actinomycin D for one hour, Day 1
[7] = 0.1 μg/ml actinomycin D for one hour, Day 2
[8] = 0.1 μg/ml actinomycin D for one hour, Day 3
[9] = 0.1 μg/ml actinomycin D for one hour, Day 4
[10] = 0.25 μg/ml actinomycin D for one hour, Day 1
[11] = 0.25 μg/ml actinomycin D for one hour, Day 2
[12] = 0.25 μg/ml actinomycin D for one hour, Day 3
[13] = 0.25 μg/ml actinomycin D for one hour, Day 4
[14] = 0.5 μg/ml actinomycin D for one hour, Day 1
[15] = 0.5 μg/ml actinomycin D for one hour, Day 2
[16] = 0.5 μg/ml actinomycin D for one hour, Day 3
[17] = 0.5 μg/ml actinomycin D for one hour, Day 4

SMILES: Cc1c2oc3c(C)ccc(C(=O)N[C@@H]4C(=O)N[C@H](C(C)C)C(=O)N5CCC[C@H]5C(=O)N(C)CC(=O)N(C)[C@@H](C(C)C)C(=O)O[C@@H]4C)c3nc-2c(C(=O)N[C@@H]2C(=O)N[C@H](C(C)C)C(=O)N3CCC[C@H]3C(=O)N(C)CC(=O)N(C)[C@@H](C(C)C)C(=O)O[C@@H]2C)c(N)c1=O [Actinomycin D, actinomycin D] (I: T[dV]P[Sar][NMeV] / II: T[dV]P[Sar][NMeV]; ester I:1-I:C, II:1-II:C; linker I:N-II:N via Actinocin(9to1))
- survival of Sf9 cells (Sf9 cells [1]; 0.1 μg/ml actinomycin D): ≤ 5%
- survival of Sf9 cells (Sf9 cells [1]; [5]): all Sf9 cells died
- Sf9 Cell Survival (Percentage) (Sf9 cells [1]; [6]): 13.7 Percentage
- Sf9 Cell Survival (Percentage) (Sf9 cells [1]; [7]): 8.6 Percentage
- Sf9 Cell Survival (Percentage) (Sf9 cells [1]; [8]): 3.7 Percentage
- Sf9 Cell Survival (Percentage) (Sf9 cells [1]; [9]): 0 Percentage
- Sf9 Cell Survival (Percentage) (Sf9 cells [1]; [10]): 4.5 Percentage
- Sf9 Cell Survival (Percentage) (Sf9 cells [1]; [11]): 3.6 Percentage
- Sf9 Cell Survival (Percentage) (Sf9 cells [1]; [12]): 0 Percentage
- Sf9 Cell Survival (Percentage) (Sf9 cells [1]; [13]): 0 Percentage
- Sf9 Cell Survival (Percentage) (Sf9 cells [1]; [14]): 0 Percentage
- Sf9 Cell Survival (Percentage) (Sf9 cells [1]; [15]): 0 Percentage
- Sf9 Cell Survival (Percentage) (Sf9 cells [1]; [16]): 0 Percentage
- Sf9 Cell Survival (Percentage) (Sf9 cells [1]; [17]): 0 Percentage
- Sf9P35AcV5-3 Cell Survival (Percentage) (Sf9P35AcV5-3 cells [2]; 0.01 μg/ml actinomycin D for one hour, Day 1): 100 Percentage
- Sf9P35AcV5-3 Cell Survival (Percentage) (Sf9P35AcV5-3 cells [2]; 0.01 μg/ml actinomycin D for one hour, Day 2): 100 Percentage
- Sf9P35AcV5-3 Cell Survival (Percentage) (Sf9P35AcV5-3 cells [2]; 0.01 μg/ml actinomycin D for one hour, Day 3): 100 Percentage
- Sf9P35AcV5-3 Cell Survival (Percentage) (Sf9P35AcV5-3 cells [2]; 0.01 μg/ml actinomycin D for one hour, Day 4): 100 Percentage
- Sf9P35AcV5-3 Cell Survival (Percentage) (Sf9P35AcV5-3 cells [2]; 0.025 μg/ml actinomycin D for one hour, Day 1): 100 Percentage
- Sf9P35AcV5-3 Cell Survival (Percentage) (Sf9P35AcV5-3 cells [2]; 0.025 μg/ml actinomycin D for one hour, Day 2): 100 Percentage
- Sf9P35AcV5-3 Cell Survival (Percentage) (Sf9P35AcV5-3 cells [2]; 0.025 μg/ml actinomycin D for one hour, Day 3): 100 Percentage
- Sf9P35AcV5-3 Cell Survival (Percentage) (Sf9P35AcV5-3 cells [2]; 0.025 μg/ml actinomycin D for one hour, Day 4): 100 Percentage
- Sf9P35AcV5-3 Cell Survival (Percentage) (Sf9P35AcV5-3 cells [2]; 0.05 μg/ml actinomycin D for one hour, Day 1): 100 Percentage
- Sf9P35AcV5-3 Cell Survival (Percentage) (Sf9P35AcV5-3 cells [2]; 0.05 μg/ml actinomycin D for one hour, Day 2): 100 Percentage
- Sf9P35AcV5-3 Cell Survival (Percentage) (Sf9P35AcV5-3 cells [2]; 0.05 μg/ml actinomycin D for one hour, Day 3): 100 Percentage
- Sf9P35AcV5-3 Cell Survival (Percentage) (Sf9P35AcV5-3 cells [2]; 0.05 μg/ml actinomycin D for one hour, Day 4): 100 Percentage
- Sf9P35AcV5-3 Cell Survival (Percentage) (Sf9P35AcV5-3 cells [2]; 0.075 μg/ml actinomycin D for one hour, Day 1): 100 Percentage
- Sf9P35AcV5-3 Cell Survival (Percentage) (Sf9P35AcV5-3 cells [2]; 0.075 μg/ml actinomycin D for one hour, Day 2): 100 Percentage
- Sf9P35AcV5-3 Cell Survival (Percentage) (Sf9P35AcV5-3 cells [2]; 0.075 μg/ml actinomycin D for one hour, Day 3): 100 Percentage
- Sf9P35AcV5-3 Cell Survival (Percentage) (Sf9P35AcV5-3 cells [2]; 0.075 μg/ml actinomycin D for one hour, Day 4): 100 Percentage
- survival of Sf9P35AcV5-3 cells (Sf9P35AcV5-3 cells [2]; [5]): survived
- Sf9P35AcV5-3 Cell Survival (Percentage) (Sf9P35AcV5-3 cells [2]; [6]): 100 Percentage
- Sf9P35AcV5-3 Cell Survival (Percentage) (Sf9P35AcV5-3 cells [2]; [7]): 100 Percentage
- Sf9P35AcV5-3 Cell Survival (Percentage) (Sf9P35AcV5-3 cells [2]; [8]): 100 Percentage
- Sf9P35AcV5-3 Cell Survival (Percentage) (Sf9P35AcV5-3 cells [2]; [9]): 100 Percentage
- survival of stably transfected line (Sf9P35AcV5-3 cells [2]; 0.25 μg/ml actinomycin D): 100%
- Sf9P35AcV5-3 Cell Survival (Percentage) (Sf9P35AcV5-3 cells [2]; [10]): 100 Percentage
- Sf9P35AcV5-3 Cell Survival (Percentage) (Sf9P35AcV5-3 cells [2]; [11]): 100 Percentage
- Sf9P35AcV5-3 Cell Survival (Percentage) (Sf9P35AcV5-3 cells [2]; [12]): 100 Percentage
- Sf9P35AcV5-3 Cell Survival (Percentage) (Sf9P35AcV5-3 cells [2]; [13]): 100 Percentage
- survival of stably transfected line (Sf9P35AcV5-3 cells [2]; 0.5 μg/ml actinomycin D): ≤ 10%
- Sf9P35AcV5-3 Cell Survival (Percentage) (Sf9P35AcV5-3 cells [2]; [14]): 9.2 Percentage
- Sf9P35AcV5-3 Cell Survival (Percentage) (Sf9P35AcV5-3 cells [2]; [15]): 8.5 Percentage
- Sf9P35AcV5-3 Cell Survival (Percentage) (Sf9P35AcV5-3 cells [2]; [16]): 1.5 Percentage
- Sf9P35AcV5-3 Cell Survival (Percentage) (Sf9P35AcV5-3 cells [2]; [17]): 0 Percentage
- resistance to actinomycin D as an inducer of apoptosis (Sf9P35AcV5-3 cells [2]; relative to Sf9 cells): ≥ 2 fold
- DNA laddering / degradation on ethidium bromide stained gel (Sf9P35AcV5-1 cells): little or no laddering or degradation
- DNA laddering / degradation on ethidium bromide stained gel (Sf9 cells [3]): DNA laddering effect typical of apoptosis
- DNA laddering / degradation on ethidium bromide stained gel (Sf9P35AcV5-3 cells [4]): little or no laddering or degradation
